Targets include PB2 (Influenza A virus, UniProt P03428); PB2 CDlp7007 H3N2 (Influenza A virus, UniProt P31345); PB2 CDlp7026 H1N1 (Influenza A virus, UniProt P03428); PB2 CDlp7028 H3N2 (Influenza A virus, UniProt P31345).
Holding throughout (assay): biochemical
Holding throughout (type): binding

Each structure is given as a SMILES string.

PB2, sequence (P03428 whole entry, looked up): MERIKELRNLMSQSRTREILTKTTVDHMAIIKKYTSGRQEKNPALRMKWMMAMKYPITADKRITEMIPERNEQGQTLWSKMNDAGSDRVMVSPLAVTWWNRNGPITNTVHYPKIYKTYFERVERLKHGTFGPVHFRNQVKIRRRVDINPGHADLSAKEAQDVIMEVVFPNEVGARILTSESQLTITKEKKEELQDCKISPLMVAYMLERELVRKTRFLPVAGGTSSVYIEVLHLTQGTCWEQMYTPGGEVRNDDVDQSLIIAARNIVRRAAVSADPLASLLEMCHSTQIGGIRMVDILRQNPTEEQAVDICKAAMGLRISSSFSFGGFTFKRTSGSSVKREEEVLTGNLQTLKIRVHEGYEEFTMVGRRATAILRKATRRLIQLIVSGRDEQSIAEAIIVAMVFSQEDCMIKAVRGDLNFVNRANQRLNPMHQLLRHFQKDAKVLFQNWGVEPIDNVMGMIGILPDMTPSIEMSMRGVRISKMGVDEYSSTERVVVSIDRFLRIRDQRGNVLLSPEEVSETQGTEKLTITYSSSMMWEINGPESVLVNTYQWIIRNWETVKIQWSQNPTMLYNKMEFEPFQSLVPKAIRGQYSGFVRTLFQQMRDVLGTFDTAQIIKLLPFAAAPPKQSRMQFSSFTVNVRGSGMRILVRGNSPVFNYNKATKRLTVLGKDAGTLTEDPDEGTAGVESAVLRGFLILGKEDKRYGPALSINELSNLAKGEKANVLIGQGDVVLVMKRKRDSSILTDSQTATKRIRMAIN
PB2 CDlp7028 H3N2, sequence (P31345 whole entry, looked up): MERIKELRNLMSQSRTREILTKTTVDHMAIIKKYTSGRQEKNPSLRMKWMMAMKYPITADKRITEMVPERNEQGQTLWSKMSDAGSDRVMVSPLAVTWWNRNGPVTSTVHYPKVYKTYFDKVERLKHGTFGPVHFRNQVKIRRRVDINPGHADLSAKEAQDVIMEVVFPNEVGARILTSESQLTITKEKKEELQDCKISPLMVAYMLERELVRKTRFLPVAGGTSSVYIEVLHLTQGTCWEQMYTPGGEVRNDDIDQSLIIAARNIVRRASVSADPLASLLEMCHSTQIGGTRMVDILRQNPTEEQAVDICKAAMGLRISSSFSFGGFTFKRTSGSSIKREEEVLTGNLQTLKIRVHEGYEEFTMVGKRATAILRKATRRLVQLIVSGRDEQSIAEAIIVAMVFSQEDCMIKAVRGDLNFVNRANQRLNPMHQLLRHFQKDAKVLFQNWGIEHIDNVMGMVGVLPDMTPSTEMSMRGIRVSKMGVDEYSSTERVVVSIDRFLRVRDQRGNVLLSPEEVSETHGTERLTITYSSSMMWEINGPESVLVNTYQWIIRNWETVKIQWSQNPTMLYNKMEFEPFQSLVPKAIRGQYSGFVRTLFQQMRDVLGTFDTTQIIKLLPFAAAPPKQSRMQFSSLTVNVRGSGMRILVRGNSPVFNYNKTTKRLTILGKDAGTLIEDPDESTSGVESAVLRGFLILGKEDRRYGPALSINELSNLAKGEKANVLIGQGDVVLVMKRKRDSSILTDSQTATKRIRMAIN
PB2 CDlp7007 H3N2, sequence (P31345 whole entry, looked up): as above
PB2 CDlp7026 H1N1, sequence (P03428 whole entry, looked up): as the sequence (P03428 whole entry, looked up) above

Molecule `CCNC(=O)OCc1ccnc(C(=O)N[C@@H]2CCC[C@H](Nc3nc(-c4c[nH]c5ncc(F)cc45)ncc3F)C2)c1` [Compound A70] showed a 50% effective concentration (EC50) at PB2 of under 5 µM. Besides, the concentration for half-maximal inhibition (IC50) against PB2 CDlp7007 H3N2 is 5 to 25 µM; against PB2 CDlp7026 H1N1 it was 5 to 25 µM; on PB2 CDlp7028 H3N2, under 5 µM. In turn, `CCOCCOCCOCCNC(=O)N[C@@H]1CCC[C@H](Nc2nc(-c3c[nH]c4ncc(F)cc34)ncc2F)C1` [Compound A164] registered a concentration for a half-maximal effect (EC50) on PB2 of 25 to 50 µM. At PB2 CDlp7007 H3N2, this molecule displayed an IC50 of 25 to 50 µM.

Consider `CCOCCOCCOCCN(C)C(=O)N[C@@H]1CCC[C@H](Nc2nc(-c3c[nH]c4ncc(F)cc34)ncc2F)C1` [Compound A165], for which the concentration for half-maximal inhibition (IC50) at PB2 CDlp7007 H3N2 and at PB2 CDlp7028 H3N2 was 50 to 100 µM throughout. As to `CCOCCOCCCCCN(C)C(=O)N[C@@H]1CCC[C@H](Nc2nc(-c3c[nH]c4ncc(F)cc34)ncc2F)C1` [Compound A181], the IC50 at PB2 CDlp7007 H3N2 was in the range of 50 to 100 µM; against PB2 CDlp7028 H3N2, 25 to 50 µM. Regarding `CCOCCOCCOCC(=O)N[C@@H]1CCC[C@H](Nc2nc(-c3c[nH]c4ncc(F)cc34)ncc2F)C1` [Compound A263], at PB2, the EC50 lay in the range of 25 to 50 µM. For the same molecule, at PB2 CDlp7007 H3N2, the IC50 fell in the range of 25 to 50 µM. As for `CCOCCOCCCCC(=O)N[C@@H]1CCC[C@H](Nc2nc(-c3c[nH]c4ncc(F)cc34)ncc2F)C1` [Compound A270], the IC50 on PB2 CDlp7007 H3N2 and against PB2 CDlp7028 H3N2 was over 100 µM each time. In turn, `CCOCCOCCOCCNC(=O)N(CCOCCOCC)[C@@H]1CCC[C@H](Nc2nc(-c3c[nH]c4ncc(F)cc34)ncc2F)C1` [Compound B4] registered an EC50 on PB2 of over 100 µM. On PB2, `CCOCCOCCOCCNC(=O)N(CCOCc1ccccc1)[C@@H]1CCC[C@H](Nc2nc(-c3c[nH]c4ncc(F)cc34)ncc2F)C1` [Compound B5] gave a concentration for a half-maximal effect (EC50) of over 100 µM. For the molecule `CCOCCOCCOCCN(C(=O)N(C)C)[C@@H]1CCC[C@H](Nc2nc(-c3c[nH]c4ncc(F)cc34)ncc2F)C1` [Compound B6], on PB2, the concentration giving a half-maximal response (EC50) is over 100 µM. For `CCOCCOCCCCCN(CC(=O)N(C)C)C(=O)N[C@@H]1CCC[C@H](Nc2nc(-c3c[nH]c4ncc(F)cc34)ncc2F)C1` [Compound B7], the EC50 on PB2 fell in the range of 25 to 50 µM.

`O=C(COCCOCCOCCO)N1CCC[C@H](Nc2nc(-c3c[nH]c4ncc(F)cc34)ncc2F)C1` [Compound C1]: the IC50 against PB2 CDlp7007 H3N2 and at PB2 CDlp7028 H3N2 was 5 to 25 µM each time. Take `CCOCCOCCOCC(=O)N1CCC[C@H](Nc2nc(-c3c[nH]c4ncc(F)cc34)ncc2F)C1` [Compound C2]: the IC50 on PB2 CDlp7007 H3N2 and at PB2 CDlp7028 H3N2 was 5 to 25 µM throughout. `NCCOCCOCCOCC(=O)N1CCC[C@H](Nc2nc(-c3c[nH]c4ncc(F)cc34)ncc2F)C1` [Compound C4] displayed an EC50 on PB2 of 5 to 25 µM. Turning to `O=C(O)CCC(=O)N1CCC[C@H](Nc2nc(-c3c[nH]c4ncc(F)cc34)ncc2F)C1` [Compound C5], the EC50 on PB2 was under 5 µM.

In the case of `CCOC(=O)CCOCCOCCOCC(=O)N1CCC[C@@H](Nc2nc(-c3c[nH]c4ncc(F)cc34)ncc2F)C1` [Compound C6], the EC50 at PB2 fell in the range of 5 to 25 µM.

Turning to `O=C(O)CCCN1CCC[C@H](Nc2nc(-c3c[nH]c4ncc(F)cc34)ncc2F)C1` [Compound C7], at PB2, the EC50 fell in the range of 5 to 25 µM. Regarding `CCOCCOCCCCCN(C)C(=O)N1CCC(CNc2nc(-c3c[nH]c4ncc(F)cc34)ncc2F)C1` (stereo not drawn) [Compound C8], the EC50 on PB2 was over 100 µM. The molecule `CCOCCOCCCCCN(C)C(=O)N1CCC(C(=O)Nc2nc(-c3c[nH]c4ncc(F)cc34)ncc2F)C1` (stereo not drawn) [Compound C9] yielded an EC50 at PB2 of over 100 µM. In turn, `O=C(O)CC(=O)N1CCC[C@H](Nc2nc(-c3c[nH]c4ncc(F)cc34)ncc2F)C1` [Compound C10] had an EC50 at PB2 of under 5 µM. Same read-out and setting: then `CCOC(=O)CN1CCC[C@H](Nc2nc(-c3c[nH]c4ncc(F)cc34)ncc2F)C1` [Compound C11], with 25 to 50 µM. Turning to `O=C(O)CN1CCC[C@H](Nc2nc(-c3c[nH]c4ncc(F)cc34)ncc2F)C1` [Compound C12], on PB2, the EC50 lay within 5 to 25 µM. On to `O=C(O)CCN1CCC[C@H](Nc2nc(-c3c[nH]c4ncc(F)cc34)ncc2F)C1` [Compound C13], for which the EC50 on PB2 lay in the range of 5 to 25 µM. As to `CCOC(=O)CCN1CCC[C@@H](Nc2nc(-c3c[nH]c4ncc(F)cc34)ncc2F)C1` [Compound C14], the EC50 on PB2 lay within 5 to 25 µM.

The term EC50 denotes the concentration needed to bring the measured effect to its halfway point. High values mean a need for much substance, low ones an effect from little substance. Broadly, the IC50 is the concentration at which inhibition is half-maximal.

The values are drawn from patent publication US12357631B2 (priority 2018, dated 2025).
